# Reference: patent US9518018B2, “3-alkoxy, thioalkyl and amino-4-amino-6-(substituted)picolinates and their use as herbicides” (Dow AgroSciences LLC, priority 2011, dated 2016)
# System: desired test plant species
# Assay: Foliar-applied postemergence herbicidal activity in direct seeded rice (Table 6)
# Type: in vivo
# Conditions: 21 DAA
# From the text: Seeds or nutlets of the desired test plant species were planted in a soil matrix prepared by mixing a loam soil (43 percent silt, 19 percent clay, and 38 percent sand, with a pH of about 8.1 and an organic matter content of about 1.5 percent) and river sand in an 80 to 20 ratio. The soil matrix was contained in plastic pots with a surface area of 139.7 cm^2. When required to ensure good germination and healthy plants, a fungicide treatment and/or other chemical or physical treatment was applied. The plants were grown for 10-17 d in a greenhouse with an approximate 14-h photoperiod which was maintained at about 29° C. during the day and 26° C. during the night. Nutrients and water were added on a regular basis and supplemental lighting was provided with overhead metal halide 1000-Watt lamps as necessary. The plants were employed for testing when they reached the second or third true leaf stage. Treatments consisted of compounds 45, 34, and 66. Weighed amounts of technical compounds were placed in individual 25 mL glass vials and dissolved in 8 mL of 97:3 v/v acetone-DMSO to obtain stock solutions. […] The spray application solutions were prepared by removing 4 mL of the stock solution and diluting with 4 mL of 97:3 v/v acetone-DMSO and continued serial dilution to obtain 1⁄2×, 1⁄4×, 1⁄8×, and 1/16× rates of the high rate. Spray solutions were diluted to the appropriate final concentrations with the addition of 8 mL of an aqueous mixture of 1.875% (v/v) Agri-dex crop oil concentrate. The final 12-mL spray solutions each contained 1.25% (v/v) Agri-dex crop oil concentrate, 32.3% acetone, and 1.0% DMSO. Compound requirements are based upon a 12 mL application volume at a rate of 187 L/ha. Spray solutions were applied to the plant material with an overhead Mandel track sprayer equipped with […] nozzles calibrated to deliver 187 L/ha over an application area of 0.503 square meters (m^2) at a spray height of 18 inches ([…]) above average plant canopy height. Control plants were sprayed in the same manner with the solvent blank. The treated plants and control plants were placed in a greenhouse as described above and watered by sub-irrigation to prevent wash-off of the test compounds. After approximately 3 weeks, the condition of the test plants, compared with that of the untreated plants, was determined visually and scored on a scale of 0 to 100 percent where 0 corresponds to no injury and 100 corresponds to complete kill. By applying the well-accepted probit analysis as described by J. Berkson in Journal of the […], 48, 565 (1953) and by D. Finney in “Probit Analysis” Cambridge University Press (1952) or by plotting the mean data and fitting a logarithmic curve to the portion of the data where there was a dose response using Microsoft Excel®, the above data can be used to calculate GR50 and GR90 values, which are defined as growth reduction factors that correspond to the effective dose of herbicide required to kill or control 50 percent or 90 percent, respectively, of a target plant.
compound,measurement,setting,value
"COc1c(C(=O)O)nc(-c2ccc(Cl)c(OC)c2F)c(F)c1N [Compound 45, 4-amino-6-(4-chloro-2-fluoro-3-methoxyphenyl)-5-fluoro-3-methoxypicolinic acid]",Mean Visual Injury (%)-21 Days After Application AESSE,"AESSE (Aeschynomene sensitiva, sensitive jointvetch), 4.38 g ae/ha",100%
same,Mean Visual Injury (%)-21 Days After Application AESSE,"AESSE (Aeschynomene sensitiva, sensitive jointvetch), 8.75 g ae/ha",100%
same,Mean Visual Injury (%)-21 Days After Application AESSE,"AESSE (Aeschynomene sensitiva, sensitive jointvetch), 17.5 g ae/ha",100%
same,Mean Visual Injury (%)-21 Days After Application AESSE,"AESSE (Aeschynomene sensitiva, sensitive jointvetch), 35 g ae/ha",100%
same,Mean Visual Injury (%)-21 Days After Application AESSE,"AESSE (Aeschynomene sensitiva, sensitive jointvetch), 70 g ae/ha",100%
same,GR50 AESSE,"AESSE (Aeschynomene sensitiva, sensitive jointvetch), dose to kill or control 50 percent",<4.38 g ae/ha
same,GR90 AESSE,"AESSE (Aeschynomene sensitiva, sensitive jointvetch), dose to kill or control 90 percent",<4.38 g ae/ha
same,Mean Visual Injury (%)-21 Days After Application BRAPP,"BRAPP (Brachiaria platyphylla, broadleaf signalgrass), 4.38 g ae/ha",72%
same,Mean Visual Injury (%)-21 Days After Application BRAPP,"BRAPP (Brachiaria platyphylla, broadleaf signalgrass), 8.75 g ae/ha",80%
same,Mean Visual Injury (%)-21 Days After Application BRAPP,"BRAPP (Brachiaria platyphylla, broadleaf signalgrass), 17.5 g ae/ha",95%
same,Mean Visual Injury (%)-21 Days After Application BRAPP,"BRAPP (Brachiaria platyphylla, broadleaf signalgrass), 35 g ae/ha",95%
same,Mean Visual Injury (%)-21 Days After Application BRAPP,"BRAPP (Brachiaria platyphylla, broadleaf signalgrass), 70 g ae/ha",98%
same,GR50 BRAPP,"BRAPP (Brachiaria platyphylla, broadleaf signalgrass), dose to kill or control 50 percent",<4.38 g ae/ha
same,GR90 BRAPP,"BRAPP (Brachiaria platyphylla, broadleaf signalgrass), dose to kill or control 90 percent",22.0 g ae/ha
same,Mean Visual Injury (%)-21 Days After Application CYPDI,"CYPDI (Cyperus difformis, small-flower flatsedge), 4.38 g ae/ha",75%
same,Mean Visual Injury (%)-21 Days After Application CYPDI,"CYPDI (Cyperus difformis, small-flower flatsedge), 8.75 g ae/ha",97%
same,Mean Visual Injury (%)-21 Days After Application CYPDI,"CYPDI (Cyperus difformis, small-flower flatsedge), 17.5 g ae/ha",98%
same,Mean Visual Injury (%)-21 Days After Application CYPDI,"CYPDI (Cyperus difformis, small-flower flatsedge), 35 g ae/ha",100%
same,Mean Visual Injury (%)-21 Days After Application CYPDI,"CYPDI (Cyperus difformis, small-flower flatsedge), 70 g ae/ha",100%
same,GR50 CYPDI,"CYPDI (Cyperus difformis, small-flower flatsedge), dose to kill or control 50 percent",<4.38 g ae/ha
same,GR90 CYPDI,"CYPDI (Cyperus difformis, small-flower flatsedge), dose to kill or control 90 percent",8.8 g ae/ha
same,Mean Visual Injury (%)-21 Days After Application CYPES,"CYPES (Cyperus esculentus, yellow nutsedge), 4.38 g ae/ha",73%
same,Mean Visual Injury (%)-21 Days After Application CYPES,"CYPES (Cyperus esculentus, yellow nutsedge), 8.75 g ae/ha",78%
same,Mean Visual Injury (%)-21 Days After Application CYPES,"CYPES (Cyperus esculentus, yellow nutsedge), 17.5 g ae/ha",85%
same,Mean Visual Injury (%)-21 Days After Application CYPES,"CYPES (Cyperus esculentus, yellow nutsedge), 35 g ae/ha",99%
same,Mean Visual Injury (%)-21 Days After Application CYPES,"CYPES (Cyperus esculentus, yellow nutsedge), 70 g ae/ha",95%
same,GR50 CYPES,"CYPES (Cyperus esculentus, yellow nutsedge), dose to kill or control 50 percent",<4.38 g ae/ha
same,GR90 CYPES,"CYPES (Cyperus esculentus, yellow nutsedge), dose to kill or control 90 percent",27.1 g ae/ha
same,Mean Visual Injury (%)-21 Days After Application CYPIR,"CYPIR (Cyperus iria, rice flatsedge), 4.38 g ae/ha",95%
same,Mean Visual Injury (%)-21 Days After Application CYPIR,"CYPIR (Cyperus iria, rice flatsedge), 8.75 g ae/ha",97%
same,Mean Visual Injury (%)-21 Days After Application CYPIR,"CYPIR (Cyperus iria, rice flatsedge), 17.5 g ae/ha",100%
same,Mean Visual Injury (%)-21 Days After Application CYPIR,"CYPIR (Cyperus iria, rice flatsedge), 35 g ae/ha",100%
same,Mean Visual Injury (%)-21 Days After Application CYPIR,"CYPIR (Cyperus iria, rice flatsedge), 70 g ae/ha",100%
same,GR50 CYPIR,"CYPIR (Cyperus iria, rice flatsedge), dose to kill or control 50 percent",<4.38 g ae/ha
same,GR90 CYPIR,"CYPIR (Cyperus iria, rice flatsedge), dose to kill or control 90 percent",<4.38 g ae/ha
same,Mean Visual Injury (%)-21 Days After Application ECHCG,"ECHCG (Echinochloa crus-galli, barnyardgrass), 4.38 g ae/ha",92%
same,Mean Visual Injury (%)-21 Days After Application ECHCG,"ECHCG (Echinochloa crus-galli, barnyardgrass), 8.75 g ae/ha",92%
same,Mean Visual Injury (%)-21 Days After Application ECHCG,"ECHCG (Echinochloa crus-galli, barnyardgrass), 17.5 g ae/ha",95%
same,Mean Visual Injury (%)-21 Days After Application ECHCG,"ECHCG (Echinochloa crus-galli, barnyardgrass), 35 g ae/ha",98%
same,Mean Visual Injury (%)-21 Days After Application ECHCG,"ECHCG (Echinochloa crus-galli, barnyardgrass), 70 g ae/ha",100%
same,GR50 ECHCG,"ECHCG (Echinochloa crus-galli, barnyardgrass), dose to kill or control 50 percent",<4.38 g ae/ha
same,GR90 ECHCG,"ECHCG (Echinochloa crus-galli, barnyardgrass), dose to kill or control 90 percent",<4.38 g ae/ha
same,Mean Visual Injury (%)-21 Days After Application ECHCO,"ECHCO (Echinochloa colonum, junglerice), 4.38 g ae/ha",80%
same,Mean Visual Injury (%)-21 Days After Application ECHCO,"ECHCO (Echinochloa colonum, junglerice), 8.75 g ae/ha",88%
same,Mean Visual Injury (%)-21 Days After Application ECHCO,"ECHCO (Echinochloa colonum, junglerice), 17.5 g ae/ha",95%
same,Mean Visual Injury (%)-21 Days After Application ECHCO,"ECHCO (Echinochloa colonum, junglerice), 35 g ae/ha",98%
same,Mean Visual Injury (%)-21 Days After Application ECHCO,"ECHCO (Echinochloa colonum, junglerice), 70 g ae/ha",100%
same,GR50 ECHCO,"ECHCO (Echinochloa colonum, junglerice), dose to kill or control 50 percent",<4.38 g ae/ha
same,GR90 ECHCO,"ECHCO (Echinochloa colonum, junglerice), dose to kill or control 90 percent",12.9 g ae/ha
same,Mean Visual Injury (%)-21 Days After Application LEFCH,"LEFCH (Leptochloa chinensis, Chinese sprangletop), 4.38 g ae/ha",3%
same,Mean Visual Injury (%)-21 Days After Application LEFCH,"LEFCH (Leptochloa chinensis, Chinese sprangletop), 8.75 g ae/ha",0%
same,Mean Visual Injury (%)-21 Days After Application LEFCH,"LEFCH (Leptochloa chinensis, Chinese sprangletop), 17.5 g ae/ha",20%
same,Mean Visual Injury (%)-21 Days After Application LEFCH,"LEFCH (Leptochloa chinensis, Chinese sprangletop), 35 g ae/ha",42%
same,Mean Visual Injury (%)-21 Days After Application LEFCH,"LEFCH (Leptochloa chinensis, Chinese sprangletop), 70 g ae/ha",60%
same,GR50 LEFCH,"LEFCH (Leptochloa chinensis, Chinese sprangletop), dose to kill or control 50 percent",53.5 g ae/ha
same,GR90 LEFCH,"LEFCH (Leptochloa chinensis, Chinese sprangletop), dose to kill or control 90 percent",>70 g ae/ha
same,Mean Visual Injury (%)-21 Days After Application ORYSA ‘Clearfield 171’,"ORYSA (Oryza sativa ‘Clearfield 171’, rice), 4.38 g ae/ha",0%
same,Mean Visual Injury (%)-21 Days After Application ORYSA ‘Clearfield 171’,"ORYSA (Oryza sativa ‘Clearfield 171’, rice), 8.75 g ae/ha",12%
same,Mean Visual Injury (%)-21 Days After Application ORYSA ‘Clearfield 171’,"ORYSA (Oryza sativa ‘Clearfield 171’, rice), 17.5 g ae/ha",15%
same,Mean Visual Injury (%)-21 Days After Application ORYSA ‘Clearfield 171’,"ORYSA (Oryza sativa ‘Clearfield 171’, rice), 35 g ae/ha",35%
same,Mean Visual Injury (%)-21 Days After Application ORYSA ‘Clearfield 171’,"ORYSA (Oryza sativa ‘Clearfield 171’, rice), 70 g ae/ha",47%
same,GR50 ORYSA ‘Clearfield 171’,"ORYSA (Oryza sativa ‘Clearfield 171’, rice), dose to kill or control 50 percent",>70 g ae/ha
same,GR90 ORYSA ‘Clearfield 171’,"ORYSA (Oryza sativa ‘Clearfield 171’, rice), dose to kill or control 90 percent",>70 g ae/ha
same,Mean Visual Injury (%)-21 Days After Application ORYSA ‘Wells’,"ORYSA (Oryza sativa ‘Wells’, rice), 4.38 g ae/ha",0%
same,Mean Visual Injury (%)-21 Days After Application ORYSA ‘Wells’,"ORYSA (Oryza sativa ‘Wells’, rice), 8.75 g ae/ha",0%
same,Mean Visual Injury (%)-21 Days After Application ORYSA ‘Wells’,"ORYSA (Oryza sativa ‘Wells’, rice), 17.5 g ae/ha",0%
same,Mean Visual Injury (%)-21 Days After Application ORYSA ‘Wells’,"ORYSA (Oryza sativa ‘Wells’, rice), 35 g ae/ha",10%
same,Mean Visual Injury (%)-21 Days After Application ORYSA ‘Wells’,"ORYSA (Oryza sativa ‘Wells’, rice), 70 g ae/ha",23%
same,GR50 ORYSA ‘Wells’,"ORYSA (Oryza sativa ‘Wells’, rice), dose to kill or control 50 percent",>70 g ae/ha
same,GR90 ORYSA ‘Wells’,"ORYSA (Oryza sativa ‘Wells’, rice), dose to kill or control 90 percent",>70 g ae/ha
same,Mean Visual Injury (%)-21 Days After Application SCPJU,"SCPJU (Scirpus juncoides, Japanese bulrush), 4.38 g ae/ha",72%
same,Mean Visual Injury (%)-21 Days After Application SCPJU,"SCPJU (Scirpus juncoides, Japanese bulrush), 8.75 g ae/ha",100%
same,Mean Visual Injury (%)-21 Days After Application SCPJU,"SCPJU (Scirpus juncoides, Japanese bulrush), 17.5 g ae/ha",100%
same,Mean Visual Injury (%)-21 Days After Application SCPJU,"SCPJU (Scirpus juncoides, Japanese bulrush), 35 g ae/ha",100%
same,Mean Visual Injury (%)-21 Days After Application SCPJU,"SCPJU (Scirpus juncoides, Japanese bulrush), 70 g ae/ha",100%
same,GR50 SCPJU,"SCPJU (Scirpus juncoides, Japanese bulrush), dose to kill or control 50 percent",<4.38 g ae/ha
same,GR90 SCPJU,"SCPJU (Scirpus juncoides, Japanese bulrush), dose to kill or control 90 percent",6.9 g ae/ha
same,Mean Visual Injury (%)-21 Days After Application SEBEX,"SEBEX (Sesbania exaltata, hemp sesbania), 4.38 g ae/ha",100%
same,Mean Visual Injury (%)-21 Days After Application SEBEX,"SEBEX (Sesbania exaltata, hemp sesbania), 8.75 g ae/ha",100%
same,Mean Visual Injury (%)-21 Days After Application SEBEX,"SEBEX (Sesbania exaltata, hemp sesbania), 17.5 g ae/ha",100%
same,Mean Visual Injury (%)-21 Days After Application SEBEX,"SEBEX (Sesbania exaltata, hemp sesbania), 35 g ae/ha",100%
same,Mean Visual Injury (%)-21 Days After Application SEBEX,"SEBEX (Sesbania exaltata, hemp sesbania), 70 g ae/ha",100%
same,GR50 SEBEX,"SEBEX (Sesbania exaltata, hemp sesbania), dose to kill or control 50 percent",<4.38 g ae/ha
same,GR90 SEBEX,"SEBEX (Sesbania exaltata, hemp sesbania), dose to kill or control 90 percent",<4.38 g ae/ha
